Assay results as given in patent US20250059196A1 (SHANGHAI HANSOH BIOMEDICAL CO., LTD., priority 2021, published 2025).

Tests used:
[1] = Pharmacokinetics of oral administration in Balb/C mice; type: in vivo; details: male, mouse, po, 30 mg/kg, P.O., plasma; for AUC(0-t): read-out: AUC 0-t; for Cmax: read-out: Cmax; for MRT: read-out: MRT; for Tmax: read-out: Tmax
Outline: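 Male Balb/C mice (n=3), fasted overnight, dosed orally at 30 mg/kg. Orbital plasma sampled at 0, 0.5, 1, 2, 4, 6, 8 and 24 h, acetonitrile-precipitated, and analysed by LC/MS/MS (C18, formic acid/acetonitrile); PK parameters by non-compartmental-style software analysis.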

OCI-Ly3 cells = assay: Inhibition of proliferation of OCI-Ly3 cells (CellTiter-Glo); type: cell-based, human; details: Homo sapiens, 96 h incubation, read-out: Inhibition test of proliferation of OCI-Ly3 cells IC50
Outline: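 OCI-Ly3 cells were plated and dosed the next day with 9 concentrations in 3-fold dilutions from 1000 nM to 0.15 nM. Cells were incubated 96 h, and viability was read by CellTiter-Glo luminescence. IC50 was fitted by four-parameter variable-slope log(inhibitor)-response regression.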

[2] = molecular target: MALT1 protease activity in TMD8 cells (substrate BCL-10) (Homo sapiens (Human), UniProt Q9UDY8); assay: Intracellular MALT1 protease activity detection (BCL-10 ELISA in TMD8 cells); type: cell-based; details: undigested BCL-10 by ELISA, 30 min compound then 2 h stimulation cocktail, read-out: Bcl10 TMD8 IC50
Sequence of MALT1 protease activity in TMD8 cells (substrate BCL-10) (Q9UDY8 whole entry): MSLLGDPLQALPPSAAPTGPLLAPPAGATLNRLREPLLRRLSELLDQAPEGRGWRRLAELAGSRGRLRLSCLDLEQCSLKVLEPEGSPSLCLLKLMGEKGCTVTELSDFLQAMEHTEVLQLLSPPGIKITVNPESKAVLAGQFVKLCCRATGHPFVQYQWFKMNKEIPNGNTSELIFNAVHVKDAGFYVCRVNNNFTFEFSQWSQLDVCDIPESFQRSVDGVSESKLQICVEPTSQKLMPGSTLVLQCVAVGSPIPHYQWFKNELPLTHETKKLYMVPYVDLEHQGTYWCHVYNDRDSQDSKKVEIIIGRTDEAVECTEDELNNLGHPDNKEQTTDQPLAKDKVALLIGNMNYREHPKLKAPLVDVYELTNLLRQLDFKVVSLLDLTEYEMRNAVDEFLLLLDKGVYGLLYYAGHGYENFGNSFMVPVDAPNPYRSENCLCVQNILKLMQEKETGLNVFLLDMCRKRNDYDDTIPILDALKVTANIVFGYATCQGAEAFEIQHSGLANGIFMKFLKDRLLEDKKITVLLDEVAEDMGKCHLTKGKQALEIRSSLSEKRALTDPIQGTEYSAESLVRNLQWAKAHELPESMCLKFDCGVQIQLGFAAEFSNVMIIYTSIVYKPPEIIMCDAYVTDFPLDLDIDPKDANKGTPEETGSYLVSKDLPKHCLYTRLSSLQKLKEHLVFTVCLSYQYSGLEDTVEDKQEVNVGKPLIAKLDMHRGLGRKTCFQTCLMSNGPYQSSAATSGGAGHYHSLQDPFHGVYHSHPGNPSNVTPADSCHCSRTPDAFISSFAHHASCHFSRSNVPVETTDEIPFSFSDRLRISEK
Outline: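 TMD8 cells treated 30 min with compound (10000-1.5 nM, 9 points, 3-fold), then stimulated 2 h with cell stimulation cocktail. Undigested BCL-10 in lysates quantified by sandwich ELISA with TMB colour read-out; IC50 from four-parameter variable-slope fit.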

[3] = molecular target: Recombinant human MALT1/MLT protein (Homo sapiens (Human), UniProt Q9UDY8); assay: Inhibitory effect on MALT1 enzyme activity (Ac-LRSR-AMC substrate, fluorescence 460 nm); type: biochemical; details: 10 nM FL MALT1, Ac-LRSR-AMC substrate, 50 min pre-incubation, 4 h reaction
Sequence of Recombinant human MALT1/MLT protein (Q9UDY8 whole entry): as above
Outline: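 Full-length MALT1 (10 nM) pre-incubated 50 min at room temperature with compound (11-point 3-fold series from 1000 nM), then 4 h reaction with […] Ac-LRSR-AMC in Tris pH 7.5, 0.6 M citrate, DTT, EDTA, BSA, 1.5% DMSO. Fluorescence at 460 nm; IC50 from four-parameter fit.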

O=C(Nc1cnc(-n2nccn2)c(C(F)(F)F)c1)c1cnn(-c2ccc3c4c(cccc24)C(=O)N3)c1C(F)(F)F [Example 18, N-(6-(2H-1,2,3-triazol-2-yl)-5-trifluoromethylpyridin-3-yl)-1-(2-oxo-1,2-dihydrobenzo[cd]indol-6-yl)-5-trifluoromethyl-1H-pyrazole-4-carboxamide]
AUC(0-inf) [1]: 222 µg·h/mL | half-life [1]: 1.9 h | AUC(0-t) [1]: 222 µg·h/mL | Cmax [1]: 22900 ng/mL | MRT [1]: 5.4 h | Tmax [1]: 2 h | IC50 (OCI-Ly3 cells): 88 nM | IC50 [2]: 61 nM | IC50 [3]: 24 nM

O=C(Nc1ccc(-n2nccn2)c(Cl)c1)c1cnn(-c2ccc3c4c(cccc24)C(=O)N3)c1C(F)(F)F [Example 53, N-(3-chloro-4-(2H-1,2,3-triazol-2-yl)phenyl)-1-(2-oxo-1,2-dihydrobenzo[cd]indol-6-yl)-5-(trifluoromethyl)-1H-pyrazole-4-carboxamide]
AUC(0-t) [1]: 256 µg·h/mL | Cmax [1]: 14100 ng/mL | Tmax [1]: 8 h | IC50 (OCI-Ly3 cells): 101 nM | IC50 [2]: 56 nM | IC50 [3]: 25 nM

O=C(Nc1ccnc(C(F)(F)F)c1)c1cnn(-c2ccc3c4c(cccc24)C(=O)N3)c1C1CC1 [Example 55, 5-cyclopropyl-1-(2-oxo-1,2-dihydrobenzo[cd]indol-6-yl)-N-(2-(trifluoromethyl)pyridin-4-yl)-1H-pyrazole-4-carboxamide]
AUC(0-inf) [1]: 472 µg·h/mL | half-life [1]: 8.6 h | AUC(0-t) [1]: 401 µg·h/mL | Cmax [1]: 28300 ng/mL | MRT [1]: 12.2 h | Tmax [1]: 4 h | IC50 (OCI-Ly3 cells): 211 nM | IC50 [2]: 50 nM | IC50 [3]: 171 nM
